Consider one compound from ChEMBL document CHEMBL5338754, “Identification of Binding Sites in the Nucleotide-Binding Domain of P-Glycoprotein for a Potent and Nontoxic Modulator, the Amine-Containing Monomeric Flavonoid FM04” (J Med Chem, 2023).

Data set [1] addresses ATP-dependent translocase ABCB1 (Homo sapiens, UniProt P08183, Q1193K). Nature of the data set: Negative allosteric modulator activity at human P-gp Q1193K mutant expressed in HEK293FT cells assessed as fold change in intracellular doxorubicin accumulation using doxorubicin as substrate at 1 uM incubated for 150 mins by microplate reader assay relative to DMSO. The class given is cell-based. To be noted: 2.5 h.

Data set [2] concerns the target T1, ATP-dependent translocase ABCB1 (Homo sapiens, UniProt P08183, T1226Y). In words: Negative allosteric modulator activity at human P-gp T1226Y mutant expressed in HEK293FT cells assessed as reversal of P-gp mediated PTX resistance by measuring sensitivity fold change incubated for 5 days by MTS assay. Particulars: 120 h, time 5 day. The class given is cell-based.

Data set [3] concerns the target T1, ATP-dependent translocase ABCB1. Nature of the data set: Negative allosteric modulator activity at human P-gp T1226Y mutant expressed in HEK293FT cells assessed as increase in intracellular doxorubicin accumulation using doxorubicin as substrate at 1 uM incubated for 150 mins by microplate reader assay (reference value: 67.4 +/- 2 %). The class given is cell-based. To be noted: 2.5 h.

The target in data set [4] is ATP-dependent translocase ABCB1 (Homo sapiens, UniProt P08183, Q1193E). Nature of the data set: Negative allosteric modulator activity at human P-gp Q1193E mutant expressed in HEK293FT cells assessed as increase in intracellular doxorubicin accumulation using doxorubicin as substrate at 1 uM incubated for 150 mins by microplate reader assay (reference value: 62.9 +/- 1.4 %). The class given is cell-based. Particulars: 2.5 h.

For data set [5], the target named is ATP-dependent translocase ABCB1 (Homo sapiens, UniProt P08183, I1115M). Nature of the data set: Negative allosteric modulator activity at human P-gp I1115M mutant expressed in HEK293FT cells assessed as fold change in intracellular doxorubicin accumulation using doxorubicin as substrate at 1 uM incubated for 150 mins by microplate reader assay relative to DMSO. The class given is cell-based. Particulars: 2.5 h.

Data set [6] has as its target ATP-dependent translocase ABCB1 (Homo sapiens, UniProt P08183, I1115A). In words: Negative allosteric modulator activity at human P-gp I1115A mutant expressed in HEK293FT cells assessed as fold change in intracellular doxorubicin accumulation using doxorubicin as substrate at 1 uM incubated for 150 mins by microplate reader assay relative to DMSO. The class given is cell-based. Particulars: 2.5 h.

The target of data set [7] is ATP-dependent translocase ABCB1 (Homo sapiens, UniProt P08183, I1115E). Nature of the data set: Negative allosteric modulator activity at human P-gp I1115E mutant expressed in HEK293FT cells assessed as fold change in intracellular doxorubicin accumulation using doxorubicin as substrate at 1 uM incubated for 150 mins by microplate reader assay relative to DMSO. The class given is cell-based. To be noted: 2.5 h.

The target of data set [8] is ATP-dependent translocase ABCB1 (Homo sapiens, UniProt P08183, G1114V). In words: Negative allosteric modulator activity at human P-gp G1114V mutant expressed in HEK293FT cells assessed as fold change in intracellular doxorubicin accumulation using doxorubicin as substrate at 1 uM incubated for 150 mins by microplate reader assay relative to DMSO. The class given is cell-based. Particulars: 2.5 h.

For data set [9], the target named is ATP-dependent translocase ABCB1 (Homo sapiens, UniProt P08183, Q1193N). In words: Negative allosteric modulator activity at human P-gp Q1193N mutant expressed in HEK293FT cells assessed as reversal of P-gp mediated PTX resistance by measuring sensitivity fold change incubated for 5 days by MTS assay. The class given is cell-based. To be noted: 120 h, time 5 day.

For data set [10], the target named is ATP-dependent translocase ABCB1 (Homo sapiens, UniProt P08183, I1115W). In words: Negative allosteric modulator activity at human P-gp I1115W mutant expressed in HEK293FT cells assessed as fold change in intracellular doxorubicin accumulation using doxorubicin as substrate at 1 uM incubated for 150 mins by microplate reader assay relative to DMSO. The class given is cell-based. Particulars: 2.5 h.

Data set [11] concerns the target ATP-dependent translocase ABCB1 (Homo sapiens, UniProt P08183, T1226A). In words: Negative allosteric modulator activity at human P-gp T1226A mutant expressed in HEK293FT cells assessed as fold change in intracellular doxorubicin accumulation using doxorubicin as substrate at 1 uM incubated for 150 mins by microplate reader assay relative to DMSO. The class given is cell-based. To be noted: 2.5 h.

Data set [12] has as its target ATP-dependent translocase ABCB1 (Homo sapiens, UniProt P08183, Q1193T). Nature of the data set: Negative allosteric modulator activity at human P-gp Q1193T mutant expressed in HEK293FT cells assessed as fold change in intracellular doxorubicin accumulation using doxorubicin as substrate at 1 uM incubated for 150 mins by microplate reader assay relative to DMSO. The class given is cell-based. To be noted: 2.5 h.

The target of data set [13] is T2, ATP-dependent translocase ABCB1 (Homo sapiens, UniProt P08183, Q1193A). Nature of the data set: Negative allosteric modulator activity at human P-gp Q1193A mutant expressed in HEK293FT cells assessed as fold change in intracellular doxorubicin accumulation using doxorubicin as substrate at 1 uM incubated for 150 mins by microplate reader assay relative to DMSO. The class given is cell-based. Particulars: 2.5 h.

Data set [14] has as its target ATP-dependent translocase ABCB1 (Homo sapiens, UniProt P08183, I1115N). In words: Negative allosteric modulator activity at human P-gp I1115N mutant expressed in HEK293FT cells assessed as increase in intracellular doxorubicin accumulation using doxorubicin as substrate at 1 uM incubated for 150 mins by microplate reader assay (reference value: 98.6 +/- 4.3 %). The class given is cell-based. To be noted: 2.5 h.

In data set [15] the target is ATP-dependent translocase ABCB1 (Homo sapiens, UniProt P08183, Q1193C). In words: Activation of P-gp ATPase activity in human P-gp Q1193C mutant expressed in HEK293FT cell microsomes at 20 uM incubated for 1 hr in presence of ATP by Glo-luminescence based microplate reader assay (reference value: 0.45 +/- 0.04 pmol/min/microg). Further details: species or system Microsome.

Data set [16] addresses T3, ATP-dependent translocase ABCB1 (Homo sapiens, UniProt P08183, Q1193F). Nature of the data set: Negative allosteric modulator activity at human P-gp Q1193F mutant expressed in HEK293FT cells assessed as fold change in intracellular doxorubicin accumulation using doxorubicin as substrate at 1 uM incubated for 150 mins by microplate reader assay relative to DMSO. The class given is cell-based. Particulars: 2.5 h.

The target in data set [17] is T2, ATP-dependent translocase ABCB1. Nature of the data set: Negative allosteric modulator activity at human P-gp Q1193A mutant expressed in HEK293FT cells assessed as reversal of P-gp mediated PTX resistance by measuring sensitivity fold change incubated for 5 days by MTS assay. To be noted: 120 h, time 5 day. The class given is cell-based.
The target in data set [18] is ATP-dependent translocase ABCB1 (Homo sapiens, UniProt P08183, H1195A). In words: Negative allosteric modulator activity at human P-gp H1195A mutant expressed in HEK293FT cells assessed as increase in intracellular doxorubicin accumulation using doxorubicin as substrate at 1 uM incubated for 150 mins by microplate reader assay (reference value: 78.1 +/- 1.4 %). The class given is cell-based. To be noted: 2.5 h.

Data set [19] has as its target ATP-dependent translocase ABCB1 (Homo sapiens, UniProt P08183, L1113A). In words: Negative allosteric modulator activity at human P-gp L1113A mutant expressed in HEK293FT cells assessed as fold change in intracellular doxorubicin accumulation using doxorubicin as substrate at 1 uM incubated for 150 mins by microplate reader assay relative to DMSO. The class given is cell-based. Particulars: 2.5 h.

The target in data set [20] is T3, ATP-dependent translocase ABCB1. Nature of the data set: Negative allosteric modulator activity at human P-gp Q1193F mutant expressed in HEK293FT cells assessed as reversal of P-gp mediated PTX resistance by measuring sensitivity fold change incubated for 5 days by MTS assay. The class given is cell-based. Particulars: 120 h, time 5 day. On the technique in general: Tetrazolium assays rely on reduction of a dye to a coloured formazan, in cell work by metabolically active cells.

The structures appear in SMILES notation.

T3 sequence (P08183 whole entry Q1193F): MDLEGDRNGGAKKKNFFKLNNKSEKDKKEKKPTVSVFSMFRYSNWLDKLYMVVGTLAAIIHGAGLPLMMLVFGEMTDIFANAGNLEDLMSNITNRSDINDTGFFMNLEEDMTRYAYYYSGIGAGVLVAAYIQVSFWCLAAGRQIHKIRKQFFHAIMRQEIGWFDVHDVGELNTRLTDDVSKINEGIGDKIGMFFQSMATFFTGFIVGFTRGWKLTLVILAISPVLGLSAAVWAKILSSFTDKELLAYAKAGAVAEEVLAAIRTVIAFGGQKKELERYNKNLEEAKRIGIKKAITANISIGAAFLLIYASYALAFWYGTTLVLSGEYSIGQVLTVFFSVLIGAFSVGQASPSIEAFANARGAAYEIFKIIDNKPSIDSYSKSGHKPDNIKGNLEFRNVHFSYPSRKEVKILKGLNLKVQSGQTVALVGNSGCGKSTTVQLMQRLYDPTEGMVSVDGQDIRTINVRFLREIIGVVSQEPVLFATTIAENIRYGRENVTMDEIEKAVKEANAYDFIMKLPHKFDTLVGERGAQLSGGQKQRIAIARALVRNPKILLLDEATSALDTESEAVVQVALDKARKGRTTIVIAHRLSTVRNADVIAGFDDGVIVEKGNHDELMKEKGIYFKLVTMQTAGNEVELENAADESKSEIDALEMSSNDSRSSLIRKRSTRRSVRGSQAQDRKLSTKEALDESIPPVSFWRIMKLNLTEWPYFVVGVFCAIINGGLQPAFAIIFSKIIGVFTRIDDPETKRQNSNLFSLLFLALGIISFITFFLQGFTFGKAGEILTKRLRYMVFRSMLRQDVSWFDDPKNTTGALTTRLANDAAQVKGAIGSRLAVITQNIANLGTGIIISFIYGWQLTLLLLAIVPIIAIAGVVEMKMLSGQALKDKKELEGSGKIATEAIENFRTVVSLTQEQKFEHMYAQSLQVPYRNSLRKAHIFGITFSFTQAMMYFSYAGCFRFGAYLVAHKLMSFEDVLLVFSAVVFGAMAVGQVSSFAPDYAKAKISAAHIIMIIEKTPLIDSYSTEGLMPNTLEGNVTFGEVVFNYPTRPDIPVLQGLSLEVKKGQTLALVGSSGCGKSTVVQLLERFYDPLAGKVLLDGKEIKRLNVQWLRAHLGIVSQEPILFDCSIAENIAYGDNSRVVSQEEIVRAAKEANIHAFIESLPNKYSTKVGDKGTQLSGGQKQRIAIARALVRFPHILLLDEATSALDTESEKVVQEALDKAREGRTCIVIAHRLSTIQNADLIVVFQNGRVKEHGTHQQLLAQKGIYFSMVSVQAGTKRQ
T2 sequence (P08183 whole entry Q1193A): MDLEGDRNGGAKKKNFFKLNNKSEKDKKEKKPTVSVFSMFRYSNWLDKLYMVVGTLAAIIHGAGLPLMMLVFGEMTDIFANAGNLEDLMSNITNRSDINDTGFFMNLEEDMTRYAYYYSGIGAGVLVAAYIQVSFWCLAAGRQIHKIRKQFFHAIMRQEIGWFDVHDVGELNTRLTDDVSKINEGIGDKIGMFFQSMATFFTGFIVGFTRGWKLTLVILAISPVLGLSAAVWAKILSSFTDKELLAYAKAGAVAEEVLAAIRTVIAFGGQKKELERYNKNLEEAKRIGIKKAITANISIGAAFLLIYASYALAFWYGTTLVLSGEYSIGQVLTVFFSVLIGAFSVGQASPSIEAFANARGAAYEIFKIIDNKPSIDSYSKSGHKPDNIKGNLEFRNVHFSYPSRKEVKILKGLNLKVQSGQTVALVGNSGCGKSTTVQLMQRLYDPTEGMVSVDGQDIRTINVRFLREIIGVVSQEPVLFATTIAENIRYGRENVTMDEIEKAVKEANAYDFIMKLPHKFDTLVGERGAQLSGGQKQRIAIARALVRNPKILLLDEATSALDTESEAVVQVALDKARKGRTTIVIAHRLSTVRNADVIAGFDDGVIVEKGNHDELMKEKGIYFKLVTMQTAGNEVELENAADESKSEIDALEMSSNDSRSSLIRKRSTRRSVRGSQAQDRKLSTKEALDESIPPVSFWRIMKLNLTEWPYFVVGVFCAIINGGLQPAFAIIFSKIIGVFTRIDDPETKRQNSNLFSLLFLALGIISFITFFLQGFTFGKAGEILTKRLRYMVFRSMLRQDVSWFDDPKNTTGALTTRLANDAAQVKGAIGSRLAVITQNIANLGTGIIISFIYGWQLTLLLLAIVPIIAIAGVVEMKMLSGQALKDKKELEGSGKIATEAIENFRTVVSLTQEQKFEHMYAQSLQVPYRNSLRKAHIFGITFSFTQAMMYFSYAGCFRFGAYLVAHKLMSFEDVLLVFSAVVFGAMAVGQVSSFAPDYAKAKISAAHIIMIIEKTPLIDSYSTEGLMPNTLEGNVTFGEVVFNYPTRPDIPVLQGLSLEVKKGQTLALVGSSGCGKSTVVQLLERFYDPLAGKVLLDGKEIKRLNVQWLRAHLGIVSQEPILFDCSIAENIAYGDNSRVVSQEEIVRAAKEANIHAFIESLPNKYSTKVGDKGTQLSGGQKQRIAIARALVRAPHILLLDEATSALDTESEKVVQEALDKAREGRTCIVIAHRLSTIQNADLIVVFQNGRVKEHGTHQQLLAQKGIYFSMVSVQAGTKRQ
T1 sequence (P08183 whole entry T1226Y): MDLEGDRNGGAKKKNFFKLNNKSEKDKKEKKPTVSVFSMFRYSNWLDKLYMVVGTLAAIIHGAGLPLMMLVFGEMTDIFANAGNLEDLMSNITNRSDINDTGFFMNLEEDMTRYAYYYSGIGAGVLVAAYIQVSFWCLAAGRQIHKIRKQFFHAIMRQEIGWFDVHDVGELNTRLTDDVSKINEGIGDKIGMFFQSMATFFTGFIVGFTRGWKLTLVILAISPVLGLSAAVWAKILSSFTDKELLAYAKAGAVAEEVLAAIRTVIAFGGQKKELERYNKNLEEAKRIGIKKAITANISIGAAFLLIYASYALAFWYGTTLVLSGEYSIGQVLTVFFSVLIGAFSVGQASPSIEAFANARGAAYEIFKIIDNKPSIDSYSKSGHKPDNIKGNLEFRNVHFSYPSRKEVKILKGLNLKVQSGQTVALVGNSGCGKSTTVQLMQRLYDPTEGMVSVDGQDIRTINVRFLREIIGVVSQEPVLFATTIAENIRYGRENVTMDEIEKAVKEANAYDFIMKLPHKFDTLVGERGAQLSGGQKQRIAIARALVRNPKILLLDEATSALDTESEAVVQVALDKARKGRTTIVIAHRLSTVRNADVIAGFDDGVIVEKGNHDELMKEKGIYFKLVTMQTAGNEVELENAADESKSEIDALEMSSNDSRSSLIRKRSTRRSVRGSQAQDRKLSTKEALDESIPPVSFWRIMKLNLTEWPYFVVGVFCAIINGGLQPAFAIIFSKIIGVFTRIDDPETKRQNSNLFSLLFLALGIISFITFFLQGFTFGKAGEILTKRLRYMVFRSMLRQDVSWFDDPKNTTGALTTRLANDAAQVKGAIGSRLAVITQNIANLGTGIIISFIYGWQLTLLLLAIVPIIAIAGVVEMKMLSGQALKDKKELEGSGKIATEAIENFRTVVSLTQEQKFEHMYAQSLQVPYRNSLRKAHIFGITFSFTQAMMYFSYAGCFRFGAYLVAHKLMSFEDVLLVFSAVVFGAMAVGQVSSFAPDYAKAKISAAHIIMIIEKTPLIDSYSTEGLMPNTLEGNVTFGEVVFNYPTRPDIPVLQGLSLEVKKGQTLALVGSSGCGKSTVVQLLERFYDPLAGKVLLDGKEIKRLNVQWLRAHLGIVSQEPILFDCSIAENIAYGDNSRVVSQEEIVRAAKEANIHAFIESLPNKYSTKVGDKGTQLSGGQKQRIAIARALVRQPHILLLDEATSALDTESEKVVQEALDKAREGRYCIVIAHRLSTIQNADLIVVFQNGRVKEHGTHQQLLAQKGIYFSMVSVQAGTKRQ
ATP-dependent translocase ABCB1 (Homo sapiens, UniProt P08183, I1115N), sequence (P08183 whole entry I1115N): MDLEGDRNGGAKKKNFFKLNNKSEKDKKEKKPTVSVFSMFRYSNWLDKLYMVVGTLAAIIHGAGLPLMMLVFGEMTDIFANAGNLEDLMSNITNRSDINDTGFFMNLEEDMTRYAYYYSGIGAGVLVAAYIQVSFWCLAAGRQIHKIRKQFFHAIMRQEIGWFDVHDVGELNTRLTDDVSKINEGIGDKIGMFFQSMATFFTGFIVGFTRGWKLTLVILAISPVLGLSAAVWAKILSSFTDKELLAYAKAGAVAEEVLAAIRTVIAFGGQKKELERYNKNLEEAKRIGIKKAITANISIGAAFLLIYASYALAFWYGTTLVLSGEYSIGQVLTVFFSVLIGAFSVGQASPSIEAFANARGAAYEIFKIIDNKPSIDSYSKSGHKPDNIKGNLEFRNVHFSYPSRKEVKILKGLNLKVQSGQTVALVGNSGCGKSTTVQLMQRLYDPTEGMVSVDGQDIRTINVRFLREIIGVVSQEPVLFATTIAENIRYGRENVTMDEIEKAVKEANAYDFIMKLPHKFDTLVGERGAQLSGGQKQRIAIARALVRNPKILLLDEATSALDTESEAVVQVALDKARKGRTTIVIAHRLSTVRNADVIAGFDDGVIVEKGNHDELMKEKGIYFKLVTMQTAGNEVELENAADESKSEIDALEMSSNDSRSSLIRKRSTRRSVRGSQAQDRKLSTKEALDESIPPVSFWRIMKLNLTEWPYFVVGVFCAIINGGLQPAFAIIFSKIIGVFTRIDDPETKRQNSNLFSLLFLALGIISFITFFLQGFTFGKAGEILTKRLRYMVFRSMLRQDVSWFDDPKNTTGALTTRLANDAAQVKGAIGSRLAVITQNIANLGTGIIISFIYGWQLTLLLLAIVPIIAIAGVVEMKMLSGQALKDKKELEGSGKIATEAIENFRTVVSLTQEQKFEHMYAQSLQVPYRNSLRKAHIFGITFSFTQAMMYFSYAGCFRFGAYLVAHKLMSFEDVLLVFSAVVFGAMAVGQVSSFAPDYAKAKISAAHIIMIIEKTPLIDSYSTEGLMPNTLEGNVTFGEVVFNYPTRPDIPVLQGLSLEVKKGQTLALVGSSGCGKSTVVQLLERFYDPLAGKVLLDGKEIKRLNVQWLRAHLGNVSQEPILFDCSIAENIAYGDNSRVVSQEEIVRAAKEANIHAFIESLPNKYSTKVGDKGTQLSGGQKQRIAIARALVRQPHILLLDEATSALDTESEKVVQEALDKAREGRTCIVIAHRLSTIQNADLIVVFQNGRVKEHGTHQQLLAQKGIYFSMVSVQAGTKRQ

Consider `O=c1cc(-c2ccc(OCCOCCNCc3ccccc3)cc2)oc2ccccc12`, for which the “fold change (FC)” value in data set [1] amounted to 1.3; in data set [2], 62.4; in [5], 1; in data set [6], 1; in data set [7], 1; in [8] it was 1. For the same compound, the “fold change (FC)” value is recorded as 51.4 in data set [9]; 1 in data set [10]; 1 in data set [11]; 1.3 in data set [12]; 1.1 in data set [13]; 1.2 in data set [16]. The “fold change (FC)” value in [17] is 4.3; in data set [19], 1.8; in [20], 5.6. Also, the Activity in [3] turned out to be 104%; in [4], 71.4%; in data set [14] it was 94.1%; in data set [15], 0.57 pmol/min/µg; in data set [18], 83.9%.
